Data as given in patent publication US20260098039A1, “SOLID FORMS OF COMPOUND I OR SALTS THEREOF” (Jacobio Pharmaceuticals Co., Ltd., priority 2022, published 2026).
Converted amounts (≈) assume the structure as drawn. “Also recorded” adds a separate entry of the source.

Columns and labels:
PARP7 enzyme = target: T1, PARP7 enzyme (Homo sapiens, UniProt Q7Z3E1); assay: PARP7 enzymatic HTRF assay; assay type: binding; conditions: 6 nM PARP7 enzyme solution, RBN011147 probe, 25° C. 3 hrs
T1 sequence (Q7Z3E1 1-657): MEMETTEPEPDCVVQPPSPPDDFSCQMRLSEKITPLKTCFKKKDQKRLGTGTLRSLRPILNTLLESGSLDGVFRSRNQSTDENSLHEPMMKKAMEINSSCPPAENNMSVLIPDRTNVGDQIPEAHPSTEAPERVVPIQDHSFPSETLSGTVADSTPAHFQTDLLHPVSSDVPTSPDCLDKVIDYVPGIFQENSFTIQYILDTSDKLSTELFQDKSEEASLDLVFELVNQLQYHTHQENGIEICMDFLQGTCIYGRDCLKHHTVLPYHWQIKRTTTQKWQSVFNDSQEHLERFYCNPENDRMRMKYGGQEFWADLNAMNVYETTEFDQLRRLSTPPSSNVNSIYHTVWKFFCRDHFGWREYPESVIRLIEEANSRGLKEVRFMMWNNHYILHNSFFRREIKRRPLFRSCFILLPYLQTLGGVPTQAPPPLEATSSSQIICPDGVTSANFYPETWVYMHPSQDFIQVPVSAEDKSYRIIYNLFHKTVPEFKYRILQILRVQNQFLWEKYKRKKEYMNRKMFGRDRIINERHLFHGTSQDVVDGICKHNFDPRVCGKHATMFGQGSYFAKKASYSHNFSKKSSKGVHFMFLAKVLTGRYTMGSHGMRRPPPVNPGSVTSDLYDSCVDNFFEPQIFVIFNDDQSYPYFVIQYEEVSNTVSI
Procedure: The PARP7 enzyme inhibitory activity of each compound was tested using HTRF (homogeneous time resolved fluorescence) assay, and the half inhibitory concentration IC50 thereof was obtained.
(1) Each compound to be tested was prepared using gradient dilution method with DMSO and water to obtain a solution with the concentration of 50 nM, 10 nM, 2 nM, 0.4 nM, and 0.08 nM. The concentration of DMSO in the solution of each compound to be tested was 2%. […]
(5) The fluorescence signal was read on SPARK plate reader (Tecan), the wavelength of the excitation spectrum of the SPARK plate reader was 320 nm, and the wavelength of the emission spectrum of the SPARK plate reader was 620 nm and 665 nm. The ratio of […] was calculated for the solution in each well. The ratio was calculated according to the following formula: Ratio=absorbance at 665 nm/absorbance at 620 nm×10^4.
(6) The activation of the compounds to be tested was calculated according to the following formula: Activation (%)=100× (ratiocompound−rationnegative)/(ratiopositive−rationegative). […]

[1] = Solid state stability of crystalline form 1; assay type: physicochemical; conditions: long-term, accelerated, high temperature and high humidity conditions, exposed, dark, 10 days
Procedure: The stability of crystalline Form 1 of Compound I was tested according to the following table 6.
The solid stability of crystalline form 1 of Compound I was exposure for 10 days in high humidity (25° C.±2° C., 90% RH±5% RH), high temperature (50° C.±5° C., <30% RH), long-term (25° C.±5° C., 60% RH±5%) and accelerated (40° C.±2° C., 75% RH±5%) conditions.

[2] = Equilibrium solubility of crystalline form 1; assay type: physicochemical
Procedure: The equilibrium solubility of crystalline form 1 of Compound I was tested according to the following table 7.

Structure (SMILES)	IC50 (PARP7 enzyme)	Polymorph (via XRPD) in solid state stability [1]	solubility thermodynamic ([2]; 37 °C, thermodynamic from solid, FeSSIF, via HPLC)	Polymorph (via XRPD) after equilibrium solubility test ([2]; after 24 h in water (25° C.), SGF (37° C.), FaSSIF (37° C.), FeSSIF (37° C.))	time to reach basic saturation ([2]; water (25° C.), SGF (37° C.), FaSSIF (37° C.), FeSSIF (37° C.))
Cc1c2n(c3ncc(C(F)(F)F)cc13)CCN(C(=O)CCOC[C@H](C)Oc1cn[nH]c(=O)c1C(F)(F)F)C2 [Compound I, (S)-5-((1-(3-(5-methyl-3-(trifluoromethyl)-8,9-dihydropyrido[3′,2′:4,5]pyrrolo[1,2-a]pyrazin-7(6H)-yl)-3-oxopropoxy)propan-2-yl)oxy)-4-(trifluoromethyl)pyridazin-3(2H)-one]	0.00158 µM				
Cc1c2n(c3ncc(C(F)(F)F)cc13)CCN(C(=O)CCOC[C@H](C)Oc1cn[nH]c(=O)c1C(F)(F)F)C2 [crystalline form 1 of Compound I, (S)-5-((1-(3-(5-methyl-3-(trifluoromethyl)-8,9-dihydropyrido[3′,2′:4,5]pyrrolo[1,2-a]pyrazin-7(6H)-yl)-3-oxopropoxy)propan-2-yl)oxy)-4-(trifluoromethyl)pyridazin-3(2H)-one]		remain unchanged; also recorded: The polymorph remained unchanged under above 4 conditions for 10	~0.1 mg/mL (≈ 183 µM)	remains unchanged	4 h
